Here are results for 25 compounds from patent publication US10189842B2 (Agency for Science, Technology and Research, priority 2013, dated 2019).

What is called IC50 is the concentration that gives 50% inhibition. Higher therefore signals lower potency.

In the experiment the test system is HEK293-STF3A cells. As to the kind of experiment: STF3A assay (luciferase reporter). In kind it is cell-based, Human. Conditions: Homo sapiens, 24 h, 1 day of treatment. The essentials: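 HEK293 cells carrying the STF reporter and expressing Wnt3A, seeded 2×10^4 per well overnight, then treated 1 day with compound at final 50 μM to 1.5 nM. Luciferase activity read by luminescence after Steady-Glo reagent, 10 min at room temperature.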
Background: In a reporter assay the amount or activity of a reporter protein is the signal.
For the compound `Cc1cncc(-c2ccc(NC(=O)C(C)CC(=O)N3CCCn4nc(C)cc43)nc2)n1` (stereo not shown) [Compound 151, 2-methyl-4-(2-methyl-6,7-dihydropyrazolo[1,5-a]pyrimidin-4(5H)-yl)-N-(5-(6-methylpyrazin-2-yl)pyridin-2-yl)-4-oxobutanamide], the concentration for half-maximal inhibition (IC50) is less than 0.1 µM. The result for `Cc1cc2n(n1)CCCN2C(=O)CCC(=O)Nc1ccc(-c2cnccn2)cc1` [Compound 129, 4-(2-methyl-6,7-dihydropyrazolo[1,5-a]pyrimidin-4(5H)-yl)-4-oxo-N-(4-(pyrazin-2-yl)phenyl)butanamide] reads less than 0.1 µM; that for `Cc1cc2n(n1)CCCN2C(=O)CCC(=O)Nc1ccc(-c2ncccn2)cc1` [Compound 40, 4-{2-methyl-5H,6H,7H-pyrazolo[1,5-a]pyrimidin-4-yl}-4-oxo-N-[4-(pyrimidin-2-yl)phenyl]butanamide], less than 1 µM. The result for `Cc1cc2n(n1)CCCN2C(=O)CCC(=O)Nc1ccc(-n2ccnc2)cc1` [Compound 27, N-(4-(1H-imidazol-1-yl)phenyl)-4-(2-methyl-6,7-dihydropyrazolo[1,5-a]pyrimidin-4(5H)-yl)-4-oxobutanamide] reads less than 1 µM; that for `Cc1cc2n(n1)CCCN2C(=O)CCC(=O)Nc1ccc(-c2cncc(Cl)c2)nc1` [Compound 108, N-(5′-chloro-[2,3′-bipyridin]-5-yl)-4-(2-methyl-6,7-dihydropyrazolo[1,5-a]pyrimidin-4(5H)-yl)-4-oxobutanamide], less than 0.1 µM. The result for `Cc1cc2n(n1)CCCN2C(=O)CCC(=O)Nc1ncc(-c2ccccc2)cc1C` [Compound 91, N-(3-methyl-5-phenylpyridin-2-yl)-4-(2-methyl-6,7-dihydropyrazolo[1,5-a]pyrimidin-4(5H)-yl)-4-oxobutanamide] reads less than 5 µM; that for `COc1cccc(-c2ccc(NC(=O)CCC(=O)N3CCCn4nc(C)cc43)cc2)c1` [Compound 62, N-(3′-methoxy-[1,1′-biphenyl]-4-yl)-4-(2-methyl-6,7-dihydropyrazolo[1,5-a]pyrimidin-4(5H)-yl)-4-oxobutanamide], less than 0.1 µM.

`Cc1cncc(-c2ccc(NC(=O)CCC(=O)N3CCCn4nc(C)cc43)nc2)c1` [Compound 116, 4-(2-methyl-6,7-dihydropyrazolo[1,5-a]pyrimidin-4(5H)-yl)-N-(5′-methyl-[3,3′-bipyridin]-6-yl)-4-oxobutanamide] displayed an IC50 of less than 0.1 µM. The compound `Cc1cc2n(n1)CCCN2C(=O)CC(C)C(=O)Nc1ccc(-c2cccnc2)nc1` (stereo not shown) [Compound 145, N-([2,3′-bipyridin]-5-yl)-2-methyl-4-(2-methyl-6,7-dihydropyrazolo[1,5-a]pyrimidin-4(5H)-yl)-4-oxobutanamide] registered a concentration for half-maximal inhibition (IC50) of less than 0.1 µM.

With `Cc1cc2n(n1)CCCN2C(=O)CCC(=O)Nc1ccc(-c2cncc(N)c2)cn1` [Compound 117], the IC50 was less than 0.1 µM.

In the case of `Cc1cc2n(n1)CCCN2C(=O)CCC(=O)Nc1ccc(-c2cccc(C(=O)N(C)C)c2)cc1` [Compound 68, N,N-dimethyl-4′-(4-(2-methyl-6,7-dihydropyrazolo[1,5-a]pyrimidin-4(5H)-yl)-4-oxobutanamido)-[1,1′-biphenyl]-3-carboxamide], the half-inhibitory concentration (IC50) was greater than 10 µM. `Cc1cncc(-c2ccc(NC(=O)C(C)CC(=O)N3CCCn4nc(C)cc43)cn2)c1` (stereo not shown) [Compound 150, 2-methyl-4-(2-methyl-6,7-dihydropyrazolo[1,5-a]pyrimidin-4(5H)-yl)-N-(5′-methyl-[2,3′-bipyridin]-5-yl)-4-oxobutanamide]: the IC50 was less than 0.1 µM. In turn, `Cc1cc2n(n1)CCCN2C(=O)CCC(=O)Nc1ccc(-c2ccc(N)cc2)cc1` [Compound 71, N-(4′-amino-[1,1′-biphenyl]-4-yl)-4-(2-methyl-6,7-dihydropyrazolo[1,5-a]pyrimidin-4(5H)-yl)-4-oxobutanamide] gave an IC50 of less than 0.1 µM. Then `Cc1cc2n(n1)CCCN2C(=O)CCC(=O)Nc1cnc(-c2cccnc2)cn1` [Compound 52, 4-(2-methyl-6,7-dihydropyrazolo[1,5-a]pyrimidin-4(5H)-yl)-4-oxo-N-(5-(pyridin-3-yl)pyrazin-2-yl)butanamide], with less than 0.1 µM; and `Cc1cc2n(n1)CCCN2C(=O)CCC(=O)Nc1ccc(-c2cccnc2)cn1` [Compound 49, 4-{2-methyl-5H,6H,7H-pyrazolo[1,5-a]pyrimidin-4-yl}-4-oxo-N-[5-(pyridin-3-yl)pyridin-2-yl]butanamide], with less than 0.1 µM; and `Cc1cc2n(n1)CCCN2C(=O)CCC(=O)Nc1ccc(-c2ccccc2)cc1C` [Compound 53, 4-(2-methyl-6,7-dihydropyrazolo[1,5-a]pyrimidin-4(5H)-yl)-N-(3-methyl-[1,1′-biphenyl]-4-yl)-4-oxobutanamide], with greater than 10 µM. Then `Cc1cc2n(n1)CCCN2C(=O)CCC(=O)Nc1ccc(-c2ccccc2)c(C)c1` [Compound 54, 4-(2-methyl-6,7-dihydropyrazolo[1,5-a]pyrimidin-4(5H)-yl)-N-(2-methyl-[1,1′-biphenyl]-4-yl)-4-oxobutanamide], with less than 0.1 µM; and `COc1cc(-c2ccccc2)ccc1NC(=O)CCC(=O)N1CCCn2nc(C)cc21` [Compound 55, N-(3-methoxy-[1,1′-biphenyl]-4-yl)-4-(2-methyl-6,7-dihydropyrazolo[1,5-a]pyrimidin-4(5H)-yl)-4-oxobutanamide], with greater than 10 µM. In turn, `Cc1cc2n(n1)CCCN2C(=O)CCC(=O)Nc1ccc(-c2ccncn2)cc1` [Compound 38, 4-(2-methyl-6,7-dihydropyrazolo[1,5-a]pyrimidin-4(5H)-yl)-4-oxo-N-(4-(pyrimidin-4-yl)phenyl)butanamide] gave a concentration for half-maximal inhibition (IC50) greater than 10 µM.

Regarding `Cc1cc2n(n1)C[C@@H](C)CN2C(=O)CCC(=O)Nc1ccc(-c2cccnc2)cn1` [Compound 169, N-(3,3′-bipyridin-6-yl)-4-(2,6-dimethyl-6,7-dihydropyrazolo[1,5-a]pyrimidin-4(5H)-yl)-4-oxobutanamide], the IC50 was less than 0.1 µM.

The compound `Cc1cc2n(n1)CCCN2C(=O)CCC(=O)Nc1cnc(-c2cccc(F)c2)cn1` [Compound 123, N-(5-(3-fluorophenyl)pyrazin-2-yl)-4-(2-methyl-6,7-dihydropyrazolo[1,5-a]pyrimidin-4(5H)-yl)-4-oxobutanamide] returned a concentration for half-maximal inhibition (IC50) of less than 0.1 µM.

The compound `Cc1cncc(-c2ccc(NC(=O)C(C)CC(=O)N3CCCn4nc(C)cc43)nc2)c1` (stereo not shown) [Compound 152, 2-methyl-4-(2-methyl-6,7-dihydropyrazolo[1,5-a]pyrimidin-4(5H)-yl)-N-(5′-methyl-[3,3′-bipyridin]-6-yl)-4-oxobutanamide] displayed an IC50 of less than 0.1 µM. On to `Cc1cc2n(n1)CC(C)CN2C(=O)CCC(=O)Nc1ccc(-c2cncc(F)c2)nn1` (stereo not shown) [Compound 167, 4-(2,6-dimethyl-6,7-dihydropyrazolo[1,5-a]pyrimidin-4(5H)-yl)-N-(6-(5-fluoropyridin-3-yl)pyridazin-3-yl)-4-oxobutanamide], for which the IC50 was less than 0.1 µM. Regarding `Cc1cccc(-c2ccc(NC(=O)CCC(=O)N3CCCn4nc(C)cc43)cn2)c1` [Compound 85, 4-(2-methyl-6,7-dihydropyrazolo[1,5-a]pyrimidin-4(5H)-yl)-4-oxo-N-(6-(m-tolyl)pyridin-3-yl)butanamide], the IC50 is less than 0.1 µM. `Cc1cc2n(n1)CCCN2C(=O)CCC(=O)Nc1cnc(-c2cccnc2)c(C)n1` [Compound 125, N-(6-methyl-5-(pyridin-3-yl)pyrazin-2-yl)-4-(2-methyl-6,7-dihydropyrazolo[1,5-a]pyrimidin-4(5H)-yl)-4-oxobutanamide] came in with a concentration for half-maximal inhibition (IC50) greater than 10 µM.
